According to ChEMBL document CHEMBL1133332, “Conversion of a polysaccharide to nitric oxide-releasing form. Dual-mechanism anticoagulant activity of diazeniumdiolated heparin” (2000):

What was measured:
Homo sapiens [1] = species: Homo sapiens; experiment: compound (at 25 micro g/ml) was tested for antithrombotic activity; type: functional
Homo sapiens [2] = species: Homo sapiens; experiment: Compound (at 25 micro g/ml) was tested for antithrombotic activity in presence of heparin; type: functional

Structure (SMILES)	Thrombin time (Homo sapiens [1]) [s]	Thrombin time (Homo sapiens [2]) [s]
CO[C@H]1O[C@H](COS(=O)(=O)O)[C@@H](O[C@@H]2O[C@H](C(=O)O)[C@@H](OC)[C@H](O)[C@H]2O)[C@H](OS(=O)(=O)O)[C@H]1NS(=O)(=O)O [HEPARIN/DIAZENIUMDIOLATE CONJUGATE]	92	
COCO/N=[N+](\[O-])N1CCN(C[C@H]2O[C@H](OC)[C@H](NS(=O)(=O)O)[C@@H](OS(=O)(=O)O)[C@@H]2O[C@@H]2O[C@H](C(=O)O)[C@@H](OC)[C@H](O)[C@H]2O)CC1 [HEPARIN/DIAZENIUMDIOLATE CONJUGATE]		80
CO[C@H]1O[C@H](CN2CCNCC2)[C@@H](O[C@@H]2O[C@H](C(=O)O)[C@@H](OC)[C@H](O)[C@H]2O)[C@H](OS(=O)(=O)O)[C@H]1NS(=O)(=O)O [HEPARIN/DIAZENIUMDIOLATE CONJUGATE]		31
